Among the data in DBAASP are MIC values, retold here.

≈ marks a conversion by molar mass, not a printed value.

Test systems include Bacillus megaterium; Escherichia coli O157:H7; Vibrio cholerae; Aspergillus fumigatus; Candida albicans; Cryptococcus neoformans; Sporothrix schenckii; Staphylococcus aureus MR.
Common to all, as to experiment: ≥ marks a high value that may be exact or a test limit, other limits are often not marked, values filed in µg/mL are converted to µM
Assay [1] concerns Lysinibacillus sphaericus TISTR 678.
Assay [2] has as its system Salmonella enterica subsp. enterica serovar Typhi ATCC 5784.
The test system of assay [3] is Salmonella enterica subsp. enterica serovar Typhi.
In assay [4] the test system is Bacillus subtilis ATCC 6633.
In assay [5] the test system is Candida parapsilosis ATCC 22019.
For assay [6], the system named is Escherichia coli ATCC 10536.
Assay [7] concerns Klebsiella pneumoniae ATCC 27736.
Assay [8] has as its system Pseudomonas aeruginosa ATCC BAA-427.
Assay [9] relates to Staphylococcus aureus ATCC 9144.
Assay [10] concerns Staphylococcus epidermidis NRRL B-4268.
Assay [11] deals with Trichophyton mentagrophytes.

Consider `CC(C)C[C@H](NC(=O)CNC(=O)[C@H](C)NC(=O)[C@H](CCCCN)NC(=O)[C@H](CCCCN)NC(=O)[C@@H](N)CC(N)=O)C(=O)N[C@@H](Cc1ccccc1)C(=O)N[C@H](C(=O)N[C@H](C(=O)N[C@@H](CCC(N)=O)C(=O)N[C@@H](Cc1ccccc1)C(=O)N1CCC[C@H]1C(=O)N[C@@H](CCCCN)C(=O)N[C@@H](CCCCN)C(=O)N[C@@H](Cc1ccc(O)cc1)C(=O)O)C(C)C)C(C)C` [NKKAGLFVVQFPKKY], for which the MIC (as a rule, the lowest concentration found to suppress growth) is 28.3 µM (≈ 50 µg/mL) against Bacillus megaterium; not below 64 µM with Escherichia coli O157:H7; not below 64 µM in assay [1]; not below 64 µM in assay [2]; not below 64 µM in assay [3]; not below 52 µM in the assay on Vibrio cholerae.

Regarding `CC(C)C[C@H](NC(=O)[C@H](CCCCN)NC(=O)[C@H](CC(C)C)NC(=O)[C@@H](NC(=O)[C@H](CCCN=C(N)N)NC(=O)[C@H](CCCN=C(N)N)NC(=O)[C@@H](NC(=O)[C@H](Cc1c[nH]c2ccccc12)NC(=O)[C@H](CCCCN)NC(=O)[C@H](CCCN=C(N)N)NC(=O)[C@@H](NC(=O)[C@H](CCCN=C(N)N)NC(=O)[C@H](CCCN=C(N)N)NC(=O)[C@@H](N)C(C)C)C(C)C)C(C)C)C(C)C)C(=O)N[C@H](C(N)=O)C(C)C` [VRRVRKWVRRVLKLV], the MIC with Aspergillus fumigatus came to 8.4 µM (≈ 16.5 µg/mL); in assay [4], 6.8 µM (≈ 13.3 µg/mL); in the assay with Candida albicans it was 9.6 µM (≈ 18.8 µg/mL); in assay [5] it was 1.5 µM (≈ 2.94 µg/mL); in the assay on Cryptococcus neoformans, 8.4 µM (≈ 16.5 µg/mL); in assay [6], 3 µM (≈ 5.89 µg/mL). Further, the MIC in [7] is 3.2 µM (≈ 6.28 µg/mL); in assay [8], 3.2 µM (≈ 6.28 µg/mL); in the assay on Sporothrix schenckii it was 6 µM (≈ 11.8 µg/mL); in [9], 5.1 µM (≈ 10 µg/mL); against Staphylococcus aureus MR, 12.5 µM (≈ 24.5 µg/mL); in [10], 6 µM (≈ 11.8 µg/mL). The molecule further returned an MIC in assay [11] of 6 µM (≈ 11.8 µg/mL).
